Source: PubChem BioAssay AID256 (DTP/NCI, 2004)
Several values for one entry are separate records, joined by “and”; a condition that tells them apart may be missing. Identical values can stand only once. Inconclusive results and toxic doses are left out.

Tested on: CD2F1 mice, L1210 leukemia ip, survival T/C
Experiment: NCI In Vivo Anticancer Drug Screen. Data for tumor model L1210 Leukemia (intraperitoneal) in CD2F1 (CDF1) mice
Conditions: higher = longer survival
How it was run: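 Ratio T/C, where T is the treated-group value and C the vehicle-dosed control value, from mice implanted with a transplantable tumor.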

[1] = endpoint: mean survival time, dose: 100.0 mg/kg/injection, schedule: Q01DX001 (ip), vehicle: saline
[2] = endpoint: mean survival time, dose: 200.0 mg/kg/injection, schedule: Q01DX001 (ip), vehicle: saline
[3] = endpoint: mean survival time, dose: 400.0 mg/kg/injection, schedule: Q01DX001 (ip), vehicle: saline
[4] = endpoint: mean survival time, dose: 100.0 mg/kg/injection, schedule: Q01DX001 (ip), vehicle: saline with Tween-80
[5] = endpoint: mean survival time, dose: 200.0 mg/kg/injection, schedule: Q01DX001 (ip), vehicle: saline with Tween-80
[6] = endpoint: mean survival time, dose: 400.0 mg/kg/injection, schedule: Q01DX001 (ip), vehicle: saline with Tween-80
[7] = endpoint: mean survival time, dose: 50.0 mg/kg/injection, schedule: Q01DX009 (ip), vehicle: saline with Tween-80
[8] = endpoint: mean survival time, dose: 100.0 mg/kg/injection, schedule: Q01DX009 (ip), vehicle: saline with Tween-80

## O=c1cnn(C2OC(CO)C(O)C2O)c(=O)[nH]1 (configuration not stated)
endpoint: mean survival time, dose: 12.5 mg/kg/injection, schedule: Q03HX024 (ip), vehicle: saline
  T/C: 119 % of control
endpoint: mean survival time, dose: 50.0 mg/kg/injection, schedule: Q01DX005 (ip), vehicle: water
  T/C: 115 % of control and 120 % of control
endpoint: mean survival time, dose: 50.0 mg/kg/injection, schedule: Q03HX024 (ip), vehicle: saline
  T/C: 91 % of control
[1]
  T/C: 105 % of control
endpoint: mean survival time, dose: 100.0 mg/kg/injection, schedule: Q01DX005 (ip), vehicle: water
  T/C: 117 % of control and 121 % of control and 106 % of control
endpoint: mean survival time, dose: 100.0 mg/kg/injection, schedule: Q01DX009 (ip), vehicle: distilled water + Tween-80
  T/C: 119 % of control
endpoint: mean survival time, dose: 100.0 mg/kg/injection, schedule: Q01DX009 (ip), vehicle: saline
  T/C: 122 % of control
endpoint: mean survival time, dose: 143.0 mg/kg/injection, schedule: Q03HX016 (ip), vehicle: other
  T/C: 122 % of control
[2]
  T/C: 101 % of control
endpoint: mean survival time, dose: 200.0 mg/kg/injection, schedule: Q01DX005 (ip), vehicle: water
  T/C: 121 % of control and 123 % of control and 108 % of control
endpoint: mean survival time, dose: 200.0 mg/kg/injection, schedule: Q01DX009 (ip), vehicle: saline
  T/C: 86 % of control
endpoint: mean survival time, dose: 300.0 mg/kg/injection, schedule: Q03HX024 (ip), vehicle: other
  T/C: 151 % of control
[3]
  T/C: 108 % of control
endpoint: mean survival time, dose: 400.0 mg/kg/injection, schedule: Q01DX005 (ip), vehicle: water
  T/C: 116 % of control
endpoint: mean survival time, dose: 400.0 mg/kg/injection, schedule: Q01DX009 (ip), vehicle: saline
  T/C: 94 % of control
endpoint: mean survival time, dose: 500.0 mg/kg/injection, schedule: Q03HX016 (ip), vehicle: other
  T/C: 152 % of control
endpoint: mean survival time, dose: 500.0 mg/kg/injection, schedule: Q03HX024 (ip), vehicle: other
  T/C: 181 % of control
endpoint: mean survival time, dose: 800.0 mg/kg/injection, schedule: Q01DX001 (ip), vehicle: saline
  T/C: 110 % of control
endpoint: mean survival time, dose: 800.0 mg/kg/injection, schedule: Q01DX005 (ip), vehicle: water
  T/C: 110 % of control
endpoint: mean survival time, dose: 800.0 mg/kg/injection, schedule: Q01DX009 (ip), vehicle: distilled water + Tween-80
  T/C: 154 % of control
endpoint: mean survival time, dose: 1000.0 mg/kg/injection, schedule: Q03HX016 (ip), vehicle: other
  T/C: 152 % of control
endpoint: mean survival time, dose: 1000.0 mg/kg/injection, schedule: Q03HX024 (ip), vehicle: other
  T/C: 167 % of control
endpoint: mean survival time, dose: 1600.0 mg/kg/injection, schedule: Q01DX009 (ip), vehicle: distilled water + Tween-80
  T/C: 160 % of control
endpoint: mean survival time, dose: 1600.0 mg/kg/injection, schedule: Q01DX009 (ip), vehicle: saline
  T/C: 121 % of control

## CC(=O)Oc1c(Br)cc(Br)cc1-c1ccccc1
[1]
  T/C: 95 % of control
endpoint: mean survival time, dose: 100.0 mg/kg/injection, schedule: Q04DX003 (ip), vehicle: saline
  T/C: 117 % of control
[2]
  T/C: 94 % of control
endpoint: mean survival time, dose: 200.0 mg/kg/injection, schedule: Q04DX003 (ip), vehicle: saline
  T/C: 105 % of control
[3]
  T/C: 101 % of control
endpoint: mean survival time, dose: 400.0 mg/kg/injection, schedule: Q04DX003 (ip), vehicle: saline
  T/C: 114 % of control

## COC(=O)C(C(=O)c1ccccc1)c1ccccc1 (configuration not stated)
[4]
  T/C: 94 % of control
[5]
  T/C: 97 % of control
[6]
  T/C: 90 % of control

## CCCCCCCCCCCCCCCC(=O)NCCOC(C)=O
[7]
  T/C: 89 % of control
[8]
  T/C: 92 % of control
endpoint: mean survival time, dose: 100.0 mg/kg/injection, schedule: Q04DX003 (ip), vehicle: saline with Tween-80
  T/C: 92 % of control
endpoint: mean survival time, dose: 200.0 mg/kg/injection, schedule: Q01DX009 (ip), vehicle: saline with Tween-80
  T/C: 93 % of control
endpoint: mean survival time, dose: 200.0 mg/kg/injection, schedule: Q04DX003 (ip), vehicle: saline with Tween-80
  T/C: 95 % of control
endpoint: mean survival time, dose: 400.0 mg/kg/injection, schedule: Q04DX003 (ip), vehicle: saline with Tween-80
  T/C: 97 % of control

## CC(=O)OCC1OC(n2ccc(=O)[nH]c2=O)CC1N=[N+]=[N-] (configuration not stated)
endpoint: median survival time, dose: 12.5 mg/kg/injection, schedule: Q01DX005 (ip), vehicle: saline with Tween-80
  T/C: 104 % of control
endpoint: median survival time, dose: 25.0 mg/kg/injection, schedule: Q01DX005 (ip), vehicle: saline with Tween-80
  T/C: 107 % of control
endpoint: median survival time, dose: 50.0 mg/kg/injection, schedule: Q01DX005 (ip), vehicle: saline with Tween-80
  T/C: 104 % of control
endpoint: median survival time, dose: 100.0 mg/kg/injection, schedule: Q01DX005 (ip), vehicle: saline with Tween-80
  T/C: 101 % of control
endpoint: median survival time, dose: 200.0 mg/kg/injection, schedule: Q01DX005 (ip), vehicle: saline with Tween-80
  T/C: 106 % of control

## CC1=CC(C)(N=[N+]=[N-])CC(C)(C)C1 (configuration not stated)
endpoint: mean survival time, dose: 37.5 mg/kg/injection, schedule: Q01DX009 (ip), vehicle: saline
  T/C: 97 % of control
endpoint: mean survival time, dose: 75.0 mg/kg/injection, schedule: Q01DX009 (ip), vehicle: saline
  T/C: 97 % of control

## CN=C(NC)c1cccc(NC(=O)/C=C\c2ccc(/C=C/C(=O)Nc3cccc(C(=NC)NC)c3)cc2)c1
endpoint: median survival time, dose: 1.25 mg/kg/injection, schedule: Q01DX009 (ip), vehicle: saline
  T/C: 101 % of control
endpoint: median survival time, dose: 2.5 mg/kg/injection, schedule: Q01DX009 (ip), vehicle: saline
  T/C: 107 % of control
endpoint: median survival time, dose: 5.0 mg/kg/injection, schedule: Q01DX009 (ip), vehicle: saline
  T/C: 101 % of control

## COc1ccc(COC(=O)Nc2ccc(Cl)cc2)cc1
endpoint: mean survival time, dose: 50.0 mg/kg/injection, schedule: Q04DX002 (ip), vehicle: saline with Tween-80
  T/C: 104 % of control
endpoint: mean survival time, dose: 100.0 mg/kg/injection, schedule: Q04DX002 (ip), vehicle: saline with Tween-80
  T/C: 100 % of control
endpoint: mean survival time, dose: 200.0 mg/kg/injection, schedule: Q04DX002 (ip), vehicle: saline with Tween-80
  T/C: 92 % of control

## O=C(Cc1ccccn1)c1ccccc1
endpoint: mean survival time, dose: 100.0 mg/kg/injection, schedule: Q01DX009 (ip), vehicle: other
  T/C: 101 % of control
endpoint: mean survival time, dose: 200.0 mg/kg/injection, schedule: Q01DX009 (ip), vehicle: other
  T/C: 96 % of control
endpoint: mean survival time, dose: 400.0 mg/kg/injection, schedule: Q01DX009 (ip), vehicle: other
  T/C: 96 % of control

## Nc1nc2c(ncn2-c2ccc3ccccc3c2)c(=O)[nH]1
[4]
  T/C: 91 % of control
[5]
  T/C: 88 % of control
[6]
  T/C: 95 % of control

## O=C(O)CC1(Br)C(=O)Nc2ccccc21 (configuration not stated)
endpoint: mean survival time, dose: 100.0 mg/kg/injection, schedule: Q04DX003 (ip), vehicle: Klucel (hydroxypropylcellulose) (HPC)
  T/C: 98 % of control
endpoint: mean survival time, dose: 200.0 mg/kg/injection, schedule: Q04DX003 (ip), vehicle: Klucel (hydroxypropylcellulose) (HPC)
  T/C: 102 % of control
endpoint: mean survival time, dose: 400.0 mg/kg/injection, schedule: Q04DX003 (ip), vehicle: Klucel (hydroxypropylcellulose) (HPC)
  T/C: 98 % of control

## CC1CC(=O)C2CC(Cl)CCC2(C)C1C (configuration not stated)
endpoint: mean survival time, dose: 25.0 mg/kg/injection, schedule: Q01DX009 (ip), vehicle: saline with Tween-80
  T/C: 97 % of control
[7]
  T/C: 90 % of control
[8]
  T/C: 94 % of control

## CCCCCCCC/C=C\CCCCCCCC(=O)NCCN(CC)CC
endpoint: mean survival time, dose: 75.0 mg/kg/injection, schedule: Q01DX001 (ip), vehicle: saline
  T/C: 101 % of control
endpoint: mean survival time, dose: 150.0 mg/kg/injection, schedule: Q01DX001 (ip), vehicle: saline
  T/C: 101 % of control

## CC(C)c1cc(C(C)(C)C)c(O)c(C(C)(C)C)c1
endpoint: mean survival time, dose: 25.0 mg/kg/injection, schedule: Q01DX009 (ip), vehicle: Klucel (hydroxypropylcellulose) (HPC)
  T/C: 94 % of control
endpoint: mean survival time, dose: 50.0 mg/kg/injection, schedule: Q01DX009 (ip), vehicle: Klucel (hydroxypropylcellulose) (HPC)
  T/C: 102 % of control
endpoint: mean survival time, dose: 100.0 mg/kg/injection, schedule: Q01DX009 (ip), vehicle: Klucel (hydroxypropylcellulose) (HPC)
  T/C: 98 % of control

## CCOC(=O)C=C(c1ccc(OC)c(OC)c1)c1ccc(OC)c(OC)c1
[1]
  T/C: 108 % of control
[2]
  T/C: 100 % of control
[3]
  T/C: 102 % of control
